Test [1] concerns the target T1, Caspase 3 (Homo sapiens, UniProt P42574).
T1 sequence (P42574 29-175 limits assumed): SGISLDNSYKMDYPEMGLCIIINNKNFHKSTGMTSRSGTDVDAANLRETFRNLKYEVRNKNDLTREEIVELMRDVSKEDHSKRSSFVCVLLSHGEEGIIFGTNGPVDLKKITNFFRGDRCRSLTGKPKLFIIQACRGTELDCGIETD
T1 sequence (P42574 176-277 limits assumed): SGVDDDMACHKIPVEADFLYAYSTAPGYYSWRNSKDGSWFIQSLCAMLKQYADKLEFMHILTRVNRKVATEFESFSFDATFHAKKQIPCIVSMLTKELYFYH
Method: (§1) Caspase 3 screening assays were performed similar to the assays described by Okun et al. [61]. […] The direct fluorometric enzyme assay was performed in a 96 well plate which was read in a temperature-controlled plate reader equipped with a 400-nm excitation filter and 505-nm emission filter. The fluorescence was read every one minute for 60 minutes.
(§2) A volume of 1 μL of DMSO solution was added to 24 μL H2O to produce a final volume of 25 μL/well in a 96 well plate. A volume of 2.5 μL of the Active caspase 3 was added. 2) A positive inhibition control was prepared by adding 1 μL of the caspase 3 Inhibitor (Z-DEVD-FMK, provided in the kit) instead of the tested compounds. 3) The other positive inhibition control was prepared by adding 1 μL of the caspase 3/7 Inhibitor (Compound C2, purchased from ApexBio company A1925) instead of the tested compounds. 4) A negative inhibition control was prepared using pure DMSO without the inhibitor. A volume of 1 μL of pure DMSO to 24 μL H2O to a final volume of 25 μL/well. 5) Master Mix was prepared for each assay containing the follows: a. 22.5 μL 2× Reaction Buffer (containing 10 mM DTT). b. 2.5 μL of the 1 mM Ac-DEVD-AFC substrate (50 μM final concentration). 6) Master Mix was mixed well then 22.5 μL of the Master Mix was added quickly to each well to start the reaction. 7) Samples were read in Gemini EM fluorescence Microplate reader with a 400 nm excitation wavelength and 505 nm emission wavelength every 1 minute for duration of 1 hour at 37° C. 8) Data was exported in an Excel spread sheet format and processed to determine the % inhibition compared to the controls in each plate. The IC50 was calculated using Graphpad PRISM 7 software.
(§3) All designed compounds were screened at a fixed concentration of 10 PM.

A further test concerns the target T2, Caspase 1 (Homo sapiens, UniProt P29466).
T2 construct: purchased Raybiotech Company 68FL-Casp1-S200
T2 sequence (P29466 120-297 limits assumed): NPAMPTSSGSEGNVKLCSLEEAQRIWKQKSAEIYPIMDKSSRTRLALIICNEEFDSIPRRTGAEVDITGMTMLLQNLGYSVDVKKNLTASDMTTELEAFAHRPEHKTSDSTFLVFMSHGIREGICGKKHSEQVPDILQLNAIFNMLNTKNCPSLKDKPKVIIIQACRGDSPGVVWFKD
T2 sequence (P29466 317-404 limits assumed): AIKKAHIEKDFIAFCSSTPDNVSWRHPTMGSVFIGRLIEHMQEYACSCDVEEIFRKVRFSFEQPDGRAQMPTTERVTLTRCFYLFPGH
Nature of the test: Caspase 1 inhibitor screening and IC50 assay (direct fluorometric enzyme assay). The settings on record: calculated by Graphpad PRISM 7; read-out: IC50 (nM) against Caspase 1. The class given is biochemical.

Test [2] addresses T1, Caspase 3. The test is described as follows: biochemical.
Method: as §1, §2, §3
The target in the next test is T3, Caspase 7 (Homo sapiens, UniProt P55210).
T3 sequence (P55210 24-198 limits assumed): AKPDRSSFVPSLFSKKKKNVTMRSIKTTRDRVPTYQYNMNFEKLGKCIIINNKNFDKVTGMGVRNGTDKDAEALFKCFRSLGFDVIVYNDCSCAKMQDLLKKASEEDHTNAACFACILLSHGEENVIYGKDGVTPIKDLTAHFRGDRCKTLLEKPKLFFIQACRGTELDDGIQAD
T3 sequence (P55210 207-303 limits assumed): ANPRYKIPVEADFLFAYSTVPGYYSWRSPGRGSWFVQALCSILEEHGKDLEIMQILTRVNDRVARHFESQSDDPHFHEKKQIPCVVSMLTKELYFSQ
The test is described as follows: biochemical.

Method for Caspase 1: Caspase 3 screening assays were performed similar to the assays described by Okun et al. [61]. The caspase 3 inhibitor drug screening kits were purchases from Raybiotech Company (Caspase 3: Item number is 68SR-Casp3S100), (Caspase 7: Item number is 68SR-Casp7-S100), and (Caspase 1: Item number is 68FL-Casp1-S200). The direct fluorometric enzyme assay was performed in a 96 well plate which was read in a temperature-controlled plate reader equipped with a 400-nm excitation filter and 505-nm emission filter. The fluorescence was read every one minute for 60 minutes.

The term inhibition denotes the share of the control response that was lost under treatment. Read a high inhibition as a response far below the control. With `Cc1cc(N2C(=O)c3c(C)nc4ccc(F)cc4c3C2=O)c2ccccc2n1` [Compound F4, 8-fluoro-4-methyl-2-(2-methylquinolin-4-yl)-1H,2H,3H-pyrrolo[3,4-c]quinoline-1,3-dione], the inhibition at Caspase 3 [1] was roughly 30%.

On Caspase 3 [1], `Cc1cc(N2C(=O)c3c(C)nc4ccccc4c3C2=O)c2ccccc2n1` [Compound H4, 4-methyl-2-(2-methylquinolin-4-yl)-1H,2H,3H-pyrrolo[3,4-c]quinoline-1,3-dione] returned an inhibition of roughly 30%.

On to `Cc1nc2ccccc2c2c1C(=O)N(c1ccc(I)cc1)C2=O` [Compound H11, 2-(4-iodophenyl)-4-methyl-1H,2H,3H-pyrrolo[3,4-c]quinoline-1,3-dione], for which, on Caspase 3 [1], the inhibition is roughly 25%.

`Cc1ccc(N2C(=O)c3c(C)nc4ccccc4c3C2=O)cc1` [Compound H13, 4-methyl-2-(4-methylphenyl)-1H,2H,3H-pyrrolo[3,4-c]quinoline-1,3-dione] displayed an inhibition on Caspase 3 [1] of roughly 25%.

The term IC50 denotes the point on the concentration scale where inhibition reaches its midpoint. Regarding `Cc1cc(N2C(=O)c3c(C)nc4ccc(S(=O)(=O)N5CCOCC5)cc4c3C2=O)c2ccccc2n1` [MO4, 4-methyl-2-(2-methylquinolin-4-yl)-8-(morpholine-4-sulfonyl)-1H,2H,3H-pyrrolo[3,4c]quinoline-1,3-dione], the IC50 on Caspase 1 is 178 nM; against Caspase 3 [2] it was 742 nM; against Caspase 7, 35.2 nM.

As to `Cc1nc2ccc(S(=O)(=O)N3CCOCC3)cc2c2c1C(=O)N(c1ccc(I)cc1)C2=O` [MO11, 2-(4-iodophenyl)-4-methyl-8-(morpholine-4-sulfonyl)-1H,2H,3H-pyrrolo[3,4-c]quinoline1,3-dione], on Caspase 3 [2], the half-inhibitory concentration (IC50) was in the range of 100 to 300 nM.

For the molecule `Cc1ccc(N2C(=O)c3c(C)nc4ccc(S(=O)(=O)N5CCOCC5)cc4c3C2=O)cc1` [MO13, 4-methyl-2-(4-methylphenyl)-8-(morpholine-4-sulfonyl)-1H,2H,3H-pyrrolo[3,4-c]quinoline1,3-dione], the IC50 was 361 nM on Caspase 1, 164 nM on Caspase 3 [2] and 145 nM against Caspase 7.

With `C#Cc1cccc(N2C(=O)c3c(C)nc4ccc(S(=O)(=O)N5CCCCC5)cc4c3C2=O)c1` [PE5, 2-(3-ethynylphenyl)-4-methyl-8-(piperidine-1-sulfonyl)-1H,2H,3H-pyrrolo[3,4-c]quinoline1,3-dione], the results for the 50% inhibitory concentration (IC50) on Caspase 1, at Caspase 3 [2] and at Caspase 7 were 261 nM, 785 nM and 408 nM, respectively.

The molecule `Cc1nc2ccc(S(=O)(=O)N3CCCC3)cc2c2c(=O)n(-c3ccccc3)[nH]c(=O)c12` [PY6B, 5-methyl-2-phenyl-9-(pyrrolidine-1-sulfonyl)-1H,2H,3H,4H-pyridazino[4,5-c]quinoline-1,4dione] gave an IC50 against Caspase 3 [2] of roughly 4000 nM.
